Tested on: hPSC-derived primitive splanchnic mesoderm (SM)
Assay: Treatment of hPSC-derived primitive SM from d4-d7 with HH, RA, Wnt and BMP agonists or antagonists; RT-PCR, immunostaining, RNA-scope
Format: cell-based, human
Method: For RNAscope on mouse tissue, fixed embryos were immersed in 30% sucrose/PBS overnight, embedded in OCT, cryosectioned (12 μm) onto Superfrost Plus slides (Thermo Fisher) and stored at −80° C. overnight. For RNAscope of adherent hPSC culture, cells were differentiated on Geltrex-coated u-Slide 8 well (ibid) and fixed in 4% PFA at room temperature for 30 min, Cells were dehydrated with ethanol gradient and stored in 100% ethanol at −20° C. RNAscope fluorescent in situ hybridization was conducted with RNAscope Multiplex Fluorescent Detection Reagents V2 (Advanced Cell Diagnostics, Inc.) and Opal fluorophore (Akoya Biosciences) according to manufacturer's instructions.
Differentiation of hPSCs into lateral plate mesoderm was induced using previously described methods with modifications. In brief, partially confluent hPSCs were dissociated into very fine clumps in Accutase (Invitrogen) and passaged 1:18 onto new Geltrex-coated 24-well plates for immunocytochemistry and 12-well plates for RNA preparation in mTeSR1 with 1 μM thiazovivin (Tocris) (Day 1). […]
Total RNA was prepared from differentiating human ES cells by using Nucleospin kit according to manufacturer's protocol. […] Significance was determined by one-way ANOVA, followed by Tukey's test. […]

## c1ccc2c(Oc3nc(Nc4ccc(N5CCOCC5)cc4)c4ncn(C5CCCCC5)c4n3)cccc2c1 [HH-agonist, purmorphamine]
  gut tube identity: promoted
  hepatic fate: efficiently blocked

Reference: patent US20220275341A1, “ORGANOID MESODERM LINEAGE DIVERSIFICATION” (CHILDREN'S HOSPITAL MEDICAL CENTER, priority 2019, published 2022)
